Measured values taken from patent US20260000781A1, “FC CONJUGATES INCLUDING AN INHIBITOR OF CD73 AND USES THEREOF” (Cidara Therapeutics, Inc., priority 2022, published 2026).
Where two headings read alike, the source gives them in different places.

Key:
[1] = biological target: T1, CD73 on EMT6 mouse mammary carcinoma cells (Mus musculus, UniProt Q61503); experiment: CD73 enzyme inhibition assay with mouse EMT6 cells (PiColorLock); format: cell-based; conditions: mouse EMT6 cancer cells, AMP 100 μM
T1 construct: host or cells: EMT6
T1 sequence (Q61503 29-551): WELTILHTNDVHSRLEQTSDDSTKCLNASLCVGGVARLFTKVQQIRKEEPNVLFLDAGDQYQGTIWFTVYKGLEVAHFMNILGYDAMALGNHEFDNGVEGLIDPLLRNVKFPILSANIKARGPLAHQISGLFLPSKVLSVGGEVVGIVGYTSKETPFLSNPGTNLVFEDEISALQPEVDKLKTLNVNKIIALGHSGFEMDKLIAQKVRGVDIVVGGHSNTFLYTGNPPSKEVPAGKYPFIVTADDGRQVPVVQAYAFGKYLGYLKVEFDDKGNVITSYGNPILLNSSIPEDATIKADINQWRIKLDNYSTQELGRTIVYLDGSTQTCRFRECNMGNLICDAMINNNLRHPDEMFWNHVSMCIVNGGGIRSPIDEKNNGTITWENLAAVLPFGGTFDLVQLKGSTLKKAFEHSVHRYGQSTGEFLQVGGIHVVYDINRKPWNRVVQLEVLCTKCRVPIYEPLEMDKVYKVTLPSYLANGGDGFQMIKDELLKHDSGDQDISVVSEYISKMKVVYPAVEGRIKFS
Description: The cell-based CD73 enzyme inhibition assay was performed in a 96-well plate format using the Phosphate Assay Kit—PiColorLock™ in accordance with the manufacturer's instructions (cat no. 270004, Abcam). AMP is enzymatically converted by CD73 to adenosine and phosphate. Therefore, adenosine concentrations can be inferred from phosphate concentrations in 1:1 ratio. Both EMT6 mouse mammary carcinoma cells (ATCC CRL-2755) and human peripheral blood mononuclear cells (PBMC; Stemcell Technologies cat no. 70025, lot no. 2202401007) were assayed. The EMT6 cells were washed three times with a phosphate free CD73 buffer, detached from flasks using a cell scraper, and seeded at 3×10^3 cells/well in 100 μL into 96-well tissue culture-treated plates. Human PBMC cells were washed three times by suspending in phosphate free CD73 buffer and pelleting in a centrifuge at 125×g for 10 min at room temperature and seeded at 5×10^5 cells/well in 100 μL into 96-well tissue culture-treated plates. […] AMP was added at 100 μM and cells, test articles, and AMP were incubated together for 3 h and 24 h at 37° C., 5% CO2. The CD73 activity in the supernatant was quantified using the PiColorLock Phosphate assay kit. Colorimetric detection reagent was added and the free phosphate from the CD73 reaction was measured by reading the absorbance at 635 nm using the EnSpire multimode plate reader (PerkinElmer). Wells without test inhibitor (CD73 positive control) were included on each plate. Wells without test inhibitor and cells (background) were subtracted from all wells. The percent CD73 inhibition versus inhibitor concentration was plotted using GraphPad Prism Version 8 and IC50's calculated using nonlinear regression analysis (Sigmoidal, 4 PL).

[2] = biological target: T2, human CD73/NT5E protein (Homo sapiens, UniProt P21589); experiment: Human CD73 binding by surface plasmon resonance; conditions: SPR, Biacore 8k; DFCs and mAbs on His-captured CD73, small molecules on NTA-captured CD73 (Table 14)
T2 construct: purchased Acro Biosystems CD3-H52H7
T2 sequence (P21589 27-549): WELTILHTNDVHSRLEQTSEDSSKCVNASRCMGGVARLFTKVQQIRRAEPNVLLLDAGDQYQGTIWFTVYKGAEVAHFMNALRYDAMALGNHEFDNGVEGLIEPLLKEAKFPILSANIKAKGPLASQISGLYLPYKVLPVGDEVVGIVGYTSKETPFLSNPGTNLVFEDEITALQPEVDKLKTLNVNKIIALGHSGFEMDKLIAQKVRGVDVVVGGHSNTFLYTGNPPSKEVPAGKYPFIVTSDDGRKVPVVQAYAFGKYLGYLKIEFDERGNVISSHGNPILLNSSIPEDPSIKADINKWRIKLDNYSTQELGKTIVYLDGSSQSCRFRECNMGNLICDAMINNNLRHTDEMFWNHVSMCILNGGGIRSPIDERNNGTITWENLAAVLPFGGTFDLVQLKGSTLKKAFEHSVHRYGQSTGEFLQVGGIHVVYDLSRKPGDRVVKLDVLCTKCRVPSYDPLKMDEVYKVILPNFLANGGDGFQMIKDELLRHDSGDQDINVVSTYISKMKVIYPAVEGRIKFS
Description: Kinetic binding of drug-Fc conjugates (DFCs) and comparator monoclonal antibodies (mAbs) to human CD73 by surface plasmon resonance (SPR) was performed by Acro Biosystems using the Biacore 8 k system (Cytiva). The anti-histidine antibody included in the His Capture Kit, type 2 (cat no. 29234602, Cytiva) was diluted to 50 μg/mL in immobilization buffer (10 mM sodium acetate, pH 4.5; cat no. 29234602, Cytiva) and immobilized at a flow rate of 10 μL/min for 420 s to 10,000 RU on a Series S Sensor Chip CM5 (cat no. 29149603, Cytiva). […] Sensorgrams were recorded by flowing 2-fold dilutions of analyte (DFC or mAb) in running buffer at concentrations ranging from 125 nM to 0.977 nM. Binding was measured at a flow rate of 30 μL/min, with a 90 s association phase and 120 s dissociation phase. […] Binding kinetics were analyzed using the data analysis software. […]
Binding of small molecule benchmark inhibitors to human CD73 by SPR was performed by Acro Biosystems using the Biacore 8 k system (Cytiva). […] Sensorgrams were recorded by flowing 2-fold dilutions of DFC analytes in running buffer at concentrations ranging from 15.625 nM to 0.977 nM. Binding was measured at a flow rate of 30 μL/min, with a 120 s association phase and 300 s dissociation phase. […] Binding kinetics were analyzed using the data analysis software. […]

[3] = biological target: T3, CD73 (Homo sapiens, UniProt P21589); experiment: Cell-free CD73 enzyme inhibition assay; format: biochemical; conditions: recombinant human CD73 0.1 ng/μL, AMP 100 μM, 25 min at 37° C. (FIG. 1A, 1B)
T3 sequence (P21589 27-549): T2 sequence (P21589 27-549)
Description: The cell-free CD73 enzyme inhibition assay was performed in a 96-well plate format using the CD73 Inhibitor Screening Assay Kit in accordance with the manufacturer's instructions (cat no. 72055, BPS Bioscience). […] Colorimetric detection reagent was then added (100 μL/well) and the free phosphate from the CD73 reaction was measured by reading the absorbance at 630 nm using the EnSpire multimode plate reader (PerkinElmer). Wells without test inhibitor (CD73 positive control) were included on each plate. Blank wells without test inhibitor and CD73 were subtracted from all wells. Percent CD73 inhibition versus inhibitor concentration was plotted using GraphPad Prism Version 8 and IC50's calculated using nonlinear regression analysis (Sigmoidal, 4 PL).
The cell-free CD73 enzyme inhibition assay was performed in a 96-well plate format using the CD73 Inhibitor Screening Assay Kit in accordance with the manufacturer's instructions (BPS Bioscience cat no. 72055). […] Colorimetric detection reagent was then added (100 μL/well) and the free phosphate from the CD73 reaction was measured by reading the absorbance at 630 nm using the EnSpire multimode plate reader (PerkinElmer). Wells without test inhibitor (CD73 positive control) were included on each plate. Blank wells without test inhibitor and CD73 were subtracted from all wells. Percent CD73 inhibition (y-axis) versus log10 inhibitor concentration (x-axis) was plotted using GraphPad Prism Version 8 and IC50's calculated using nonlinear regression analysis (Sigmoidal, 4 PL).

Compound | IC50 ([1]; 3 h IC50 [nM], 3 h) | IC50 ([1]; 24 h, read-out: 24 h IC50) | Kd [2] | IC50 [3] | IC50 ([1]; read-out: 3 h IC50, 3 h)
C[C@H](Nc1cc(Cl)nc2c1cnn2[C@@H]1O[C@H](COP(=O)(O)CP(=O)(O)O)[C@@H](O)[C@H]1O)c1ccccc1F [AB680] | 1.06 nM | 2.29 nM |  |  | 
COC[C@](CO)(OC[C@H]1O[C@@H](n2ncc3c(NC4CCCC4)nc(Cl)nc32)[C@H](O)[C@@H]1O)P(=O)(O)O [OP-5244] |  | 0.51 nM | 0.523 nM | 1.3 nM | 0.28 nM
O=P(O)(O)COC[C@H]1O[C@@H](n2ncc3c(N4CC5(CCc6ccccc65)C4)nc(Cl)nc32)[C@H](O)[C@@H]1O [SHR170008] |  |  | 3.34 nM | 4.1 nM | 
